Results from ChEMBL document CHEMBL3885881, “DrugMatrix”.

Species on record: Rattus norvegicus
Assay: DrugMatrix - Regimen: Daily Repeat
Format: toxicity, organism-based, Sprague-Dawley
Parameters: regimen Daily Repeat, gender Male, age 6-8 weeks
Conditions: in vivo, iv, 34 mg/kg, dose level High, vehicle 100 % SALINE; for ABSOLUTE BASOPHIL / ABSOLUTE EOSINOPHIL / ABSOLUTE LYMPHOCYTE / ABSOLUTE MONOCYTE / ABSOLUTE SEGMENTED NEUTROPHIL / BASOPHIL / EOSINOPHIL / ERYTHROCYTE COUNT / HEMATOCRIT / HEMOGLOBIN / LEUKOCYTE COUNT / LYMPHOCYTE / MEAN CORPUSCULAR HEMOGLOBIN / MEAN CORPUSCULAR HEMOGLOBIN CONCENTRATION / MEAN CORPUSCULAR VOLUME / MONOCYTE / NEUTROPHIL / NUCLEATED RED BLOOD CELLS / PLATELET COUNT: tissue Blood; for ALANINE AMINOTRANSFERASE / ALBUMIN / ALKALINE PHOSPHATASE / ASPARTATE AMINOTRANSFERASE / BLOOD UREA NITROGEN / CARBON DIOXIDE / CHLORIDE / CHOLESTEROL / CREATINE PHOSPHOKINASE / CREATININE / GLUCOSE / LACTATE DEHYDROGENASE / LIPASE / PHOSPHORUS / POTASSIUM / SODIUM / TOTAL BILIRUBIN / TOTAL PROTEIN / URIC ACID: tissue Plasma

## CN[C@@H]1[C@@H](O)[C@@H](O[C@@H]2[C@@H](O)[C@H](O[C@H]3OC(CN)=CC[C@H]3N)[C@@H](N)C[C@H]2N)OC[C@]1(C)O [SISOMICIN]
72 h, time 3 day
  ABSOLUTE BASOPHIL: 0 CELLS/uL
  ABSOLUTE EOSINOPHIL: 0 CELLS/uL
  ABSOLUTE LYMPHOCYTE: 14608 CELLS/uL
  ABSOLUTE MONOCYTE: 68 CELLS/uL
  ABSOLUTE SEGMENTED NEUTROPHIL: 824 CELLS/uL
  BASOPHIL: 0%
  EOSINOPHIL: 0%
  ERYTHROCYTE COUNT: 5.47 x10E6/uL
  HEMATOCRIT: 35.6%
  HEMOGLOBIN: 14.07 G/DL
  LEUKOCYTE COUNT: 15.5 x10E3/uL
  LYMPHOCYTE: 94.67%
  MEAN CORPUSCULAR HEMOGLOBIN: 25.73 pg
  MEAN CORPUSCULAR HEMOGLOBIN CONCENTRATION: 39.53 G/DL
  MEAN CORPUSCULAR VOLUME: 65.13 fL
  MONOCYTE: 0.33%
  NEUTROPHIL: 5%
  NUCLEATED RED BLOOD CELLS: 0 /100WBC
  PLATELET COUNT: 1451.67 x10E3/uL
  ALANINE AMINOTRANSFERASE: 52.33 u/L
  ALBUMIN: 4.2 G/DL
  ALKALINE PHOSPHATASE: 295 u/L
  ASPARTATE AMINOTRANSFERASE: 81.67 u/L
  BLOOD UREA NITROGEN: 17.67 mg/dL
  CARBON DIOXIDE: 24 mmol/L
  CHLORIDE: 102.33 MEQ/L
  CHOLESTEROL: 66.33 mg/dL
  CREATINE PHOSPHOKINASE: 204.33 u/L
  CREATININE: 0.22 mg/dL
  GLUCOSE: 150.67 mg/dL
  LACTATE DEHYDROGENASE: 135.33 u/L
  LIPASE: 10.33 u/L
  PHOSPHORUS: 11.77 mg/dL
  POTASSIUM: 6.49 MEQ/L
  SODIUM: 144.2 MEQ/L
  TOTAL BILIRUBIN: 0.17 mg/dL
  TOTAL PROTEIN: 6 G/DL
  URIC ACID: 1.27 mg/dL
120 h, time 5 day
  ABSOLUTE BASOPHIL: 0 CELLS/uL
  ABSOLUTE EOSINOPHIL: 136 CELLS/uL
  ABSOLUTE LYMPHOCYTE: 16493.67 CELLS/uL
  ABSOLUTE MONOCYTE: 81 CELLS/uL
  ABSOLUTE SEGMENTED NEUTROPHIL: 1222.67 CELLS/uL
  BASOPHIL: 0%
  EOSINOPHIL: 1%
  ERYTHROCYTE COUNT: 5.67 x10E6/uL
  HEMATOCRIT: 37.07%
  HEMOGLOBIN: 14.6 G/DL
  LEUKOCYTE COUNT: 17.93 x10E3/uL
  LYMPHOCYTE: 92%
  MEAN CORPUSCULAR HEMOGLOBIN: 25.73 pg
  MEAN CORPUSCULAR HEMOGLOBIN CONCENTRATION: 39.43 G/DL
  MEAN CORPUSCULAR VOLUME: 65.3 fL
  MONOCYTE: 0.33%
  NEUTROPHIL: 6.67%
  NUCLEATED RED BLOOD CELLS: 0 /100WBC
  PLATELET COUNT: 1387.67 x10E3/uL
  ALANINE AMINOTRANSFERASE: 44 u/L
  ALBUMIN: 4.3 G/DL
  ALKALINE PHOSPHATASE: 391.67 u/L
  ASPARTATE AMINOTRANSFERASE: 71.67 u/L
  BLOOD UREA NITROGEN: 15.67 mg/dL
  CARBON DIOXIDE: 22.33 mmol/L
  CHLORIDE: 103.67 MEQ/L
  CHOLESTEROL: 57.33 mg/dL
  CREATINE PHOSPHOKINASE: 158 u/L
  CREATININE: 0.22 mg/dL
  GLUCOSE: 155 mg/dL
  LACTATE DEHYDROGENASE: 130.67 u/L
  LIPASE: 10 u/L
  PHOSPHORUS: 12.63 mg/dL
  POTASSIUM: 6.57 MEQ/L
  SODIUM: 145.93 MEQ/L
  TOTAL BILIRUBIN: 0.27 mg/dL
  TOTAL PROTEIN: 6.17 G/DL
  URIC ACID: 1.63 mg/dL
